Assay results reported in the NIST ThermoML archive (doi:10.1016/j.jct.2014.03.005).
Values joined by “and” are separate entries in the source; they are usually repeats but may differ in a detail not shown here. Identical values can stand only once.

Experiments:
[1] = Molar enthalpy of transition or fusion; conditions: Crystal; DSC
[2] = Crystal; for vapor or sublimation pressure: Calculated from knudsen effusion weight loss; for Normal melting temperature: DTA
[3] = molar enthalpy of vaporization or sublimation; conditions: 298.15 K; Crystal; Static calorimetry

Nc1ccc2c(c1)Cc1ccccc1-2 [2-aminofluorene]
Conditions | Molar enthalpy of transition or fusion [kcal/mol] | Normal melting temperature [°C] | molar enthalpy [kcal/mol]
[1] | 5.69 | – | –
[2] | – | 127.79 | –
[3] | – | – | 26.4

[2]
Conditions | vapor or sublimation pressure
345.16 K | 0.000121 kPa and 0.00012 kPa and 0.000118 kPa
347.13 K | 0.000155 kPa and 0.000154 kPa and 0.000148 kPa
349.17 K | 0.000189 kPa and 0.000182 kPa and 0.00019 kPa
351.15 K | 0.000238 kPa and 0.000226 kPa
353.1 K | 0.000286 kPa and 0.000283 kPa and 0.000291 kPa
355.17 K | 0.00035 kPa and 0.000348 kPa and 0.000362 kPa
357.13 K | 0.000447 kPa and 0.000436 kPa and 0.000432 kPa
359.16 K | 0.000546 kPa and 0.000522 kPa and 0.000551 kPa
361.13 K | 0.000675 kPa and 0.000647 kPa and 0.000664 kPa
363.1 K | 0.000811 kPa and 0.000789 kPa and 0.000805 kPa
365.09 K | 0.000994 kPa and 0.000997 kPa and 0.000981 kPa

O=[N+]([O-])c1ccc2c(c1)Cc1ccccc1-2 [2-nitro-9H-fluorene]
Conditions | Molar enthalpy of transition or fusion [kcal/mol] | Normal melting temperature [°C] | molar enthalpy [kcal/mol]
[1] | 5.92 | – | –
[2] | – | 156.74 | –
[3] | – | – | 27.3

[2]
Conditions | vapor or sublimation pressure
357.16 K | 9e-05 kPa and 9.2e-05 kPa
359.13 K | 0.000115 kPa and 0.000114 kPa and 0.000111 kPa
361.11 K | 0.000141 kPa and 0.000139 kPa and 0.00014 kPa
363.16 K | 0.000172 kPa and 0.00017 kPa
365.14 K | 0.000217 kPa and 0.000209 kPa and 0.000213 kPa
367.11 K | 0.000261 kPa and 0.000258 kPa
369.16 K | 0.000315 kPa and 0.000322 kPa
371.13 K | 0.000398 kPa and 0.000377 kPa and 0.000392 kPa
373.1 K | 0.000478 kPa and 0.000472 kPa and 0.000474 kPa
375.15 K | 0.000565 kPa and 0.000561 kPa and 0.000578 kPa
377.14 K | 0.000696 kPa and 0.000707 kPa and 0.000678 kPa
379.12 K | 0.000839 kPa and 0.000844 kPa and 0.000829 kPa
